Source: patent publication US7887851B2, “Aromatase activator” (Kao Corporation, priority 2004, dated 2011)

Legend:
[1] = test system: transcription control region for exon 1b of human aromatase gene; experiment: Luciferase reporter assay, Ex1b-luc in HepG2 cell (expression of exon 1b of aromatase gene); assay type: cell-based; details: added at 1%, 20 hours
Protocol: The region containing transcription control region for exon 1b of human aromatase gene and a part of the exon 1b was amplified by PCR from genomic DNA extracted from human normal keratinocyte by using the following primers: […]
The resulting PCR product was treated with restriction enzymes SpeI and EcoRI, and incorporated in SpeI site and EcoRI site in SeaPansy null Control Vector (Toyo Ink Mfg. Co., Ltd.) to produce Ex1b-luc plasmid. This plasmid was used in the luciferase assay as will be described below.
Immortalized human hepatoma-derived cell (HepG2 cell) […]
The transfected cells were cultivated overnight, and plant extract prepared in Production Example 1, Table 2, or yeast extract (“YeastLiquid B”, Ichimaru Pharcos Co Ltd.), silk protein extract (“Silkgen G Soluble KE”, Ichimaru Pharcos Co Ltd.), milk protein (“Bioderma SX-14” Ichimaru Pharcos Co Ltd.), “lactoferrin S FREE”, Ichimaru Pharcos Co Ltd.), natto extract (“Soybean polymer F B-20”, Ichimaru Pharcos Co Ltd.), or royal jelly (“royal jelly extract”, Ichimaru Pharcos Co Ltd.) was added (1% or 0.1%), and the cultivation was continued for another 20 hours. After adding 20 μL of alamarBlue (BIOSOURCE), fluorescence intensity (excitation light 544 nm, fluorescence 590 nm) was measured. Luciferase activity was also measured by using PicaGene Dual SeaPansy Luminescence kit (Nippon Gene). […]

[2] = test system: HepG2 cell; experiment: alamarBlue fluorescence in Ex1b-luc transfected HepG2 cell; assay type: cell-based, human; details: added at 1%, 20 hours
Protocol: Immortalized human hepatoma-derived cell (HepG2 cell)
HepG2 cell was inoculated to 96 well culture plate at 30,000 cells per well, and Ex1b-luc was introduced using lipofectamine reagent (Invitrogen) according to the protocol described in the attached manual. The DNA was used at an amount of 0.1 μg per well. The same procedure was repeated for control without adding the DNA (2 wells).
The transfected cells were cultivated overnight, and plant extract prepared in Production Example 1, Table 2, or yeast extract (“YeastLiquid B”, Ichimaru Pharcos Co Ltd.), silk protein extract (“Silkgen G Soluble KE”, Ichimaru Pharcos Co Ltd.), milk protein (“Bioderma SX-14” Ichimaru Pharcos Co Ltd.), “lactoferrin S FREE”, Ichimaru Pharcos Co Ltd.), natto extract (“Soybean polymer F B-20”, Ichimaru Pharcos Co Ltd.), or royal jelly (“royal jelly extract”, Ichimaru Pharcos Co Ltd.) was added (1% or 0.1%), and the cultivation was continued for another 20 hours. After adding 20 μL of alamarBlue (BIOSOURCE), fluorescence intensity (excitation light 544 nm, fluorescence 590 nm) was measured. Luciferase activity was also measured by using PicaGene Dual SeaPansy Luminescence kit (Nippon Gene). The cells were lysed by adding 25 μL per well of the lysis buffer that had been diluted 5× lysis buffer to 1× concentration.

OC[C@H]1O[C@H](O[C@H]2O[C@H](CO)[C@@H](O)[C@H](O)[C@H]2O)[C@H](O)[C@@H](O)[C@@H]1O [Trehalose, trehalose]
Luciferase activity [1]: 141.0%
AlamarBlue activity [2]: 113.9%
